Results: patent US9636409B2, “Enzyme and receptor modulation using covalent conjugates of alpha,alpha-disubstituted glycine esters” (GlaxoSmithKline Intellectual Property Development Limited, priority 2008, dated 2017)

Columns and labels:
[1] = test system: cell lysate from U937 cells; experiment: Broken cell carboxylesterase assay (U937 cell extract); type: in vitro ADME; details: ester 2.5 μM
Description: Broken Cell Carboxylesterase Assay
Any given compound of the present invention wherein ester conjugate according to the invention may be tested to determine whether it meets the requirement that it be hydrolysed by intracellular esterases, by testing in the following assay.
Preparation of Cell Extract
U937 or HCT 116 tumour cells (˜10^9) were washed in 4 volumes of Dulbeccos PBS (˜1 liter) and pelleted at 525 g for 10 min at 4° C. This was repeated twice and the final cell pellet was re-suspended in 35 mL of cold homogenising buffer (Trizma 10 mM, NaCl 130 mM, CaCl2 0.5 mM pH 7.0 at 25° C.). Homogenates were prepared by nitrogen cavitation (700 psi for 50 min at 4° C.). The homogenate was kept on ice and supplemented with a cocktail of inhibitors at final concentrations of: • Leupeptin 1 μM • Aprotinin 0.1 μM • E64 8 μM • Pepstatin 1.5 μM • Bestatin 162 μM • Chymostatin 33 μM
After clarification of the cell homogenate by centrifugation at 525 g for 10 min, the resulting supernatant was used as a source of esterase activity and was stored at −80° C. until required. […]
Hydrolysis of esters to the corresponding carboxylic acids can be measured using the cell extract, prepared as above. […] After centrifugation at 12000 g for 5 min, samples were analysed for the ester and its corresponding carboxylic acid at room temperature by LCMS (Sciex API 3000, HP1100 binary pump, CTC PAL). […]

[2] = test system: phosphorylation of MAPKAP-2 in HUT 78 cells; experiment: p38 MAP Kinase cellular assay: inhibition of phosphorylation of MAPKAP2 in HUT 78 cells; type: cell-based; details: Table 2
Description: p38 MAP Kinase Cellular Assay: Inhibition of Phosphorylation of MAPKAP2
U937 or HUT78 cells were plated in RPMI 1640, and were incubated at 37° C., 5% CO2 for 18 hours. 10 mM stocks of compounds were diluted media/0.1% DMSO to give a log or semi-log dilution series. The wells for ‘no treatment’ and ‘anisomycin’ were treated with 0.1% DMSO only. The cells were incubated at 37° C., 5% CO2 for a further 4 hours. Anisomycin was added to all wells except ‘no treatment’ at a final concentration of 10 μM. The cells were incubated at 37° C., 5% CO2 for 30 minutes before harvest. Plates were stood on ice whilst harvesting, and all following steps were carried out at 4° C. The cells were pelleted at 1000 rpm for 10 minutes at 4° C., the media aspirated, and the pellet washed with cold PBS. The pellets were lysed in 120 μl of SDS lysis buffer (62.5 mM Tris, pH 6.8, 2% SDS, 10% glycerol, 50 mM DTT, with protease inhibitors and phosphatase inhibitors added according to the manufacturers' recommendations). After 30 minutes on ice, the samples were sonicated for 5 seconds before centrifugation at 13,000 rpm 4° C. for 10 minutes to remove cell debris. 10 μl of the resulting gel samples were loaded per lane on NOVEX 4-12% Bis-Tris MOPS gels. Membranes from western transfer of gels were blotted with anti-phospho MAPKAP2, anti-phospho HSP27 and anti GAPDH according to the manufacturers' Instructions. Signal was visualised using HRP-Hnked anti-rabbit or anti-mouse antibodies, ECL reagent and ECL film. IC50 values for the various compounds were visualised from the resulting photographic images, using both band-shift and signal intensity.

CC(C)(NCCc1ccc(-n2c(N)c(C(=O)c3ccc(F)cc3F)ccc2=O)cc1)C(=O)OC1CCCC1 [Example 1]
Cleavage by cell lysate from U937 cells [1]: 165 pg/mL/min
IC50 ([2]; Homo sapiens, HuT78, HUT 78 non-monocyte cell line): 1000 nM
Ratio IC50s in HUT 78 to U937 cells ([2]; MAPKAP-2 phosphorylation IC50s): 100
